Test results from patent US20230093099A1, “COMPOUNDS AND METHODS OF TREATING CANCERS” (CULLGEN (SHANGHAI), INC., priority 2019, published 2023).
Read-outs that look alike come from different tables or passages of the source.

System: RS4;11 cells
Assay: Cell viability assay (CellTiter-Glo) in RS4;11 cells
Type: cell-based
Conditions: Homo sapiens, 72 h
Summary of the method: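 Three-day compound treatment of RS4;11 ALL cells (5000/well, 3-fold dilution series of 8 or 12 points), with IC50 from a nonlinear least-squares fit to CellTiter-Glo viability data.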

[1] = RS4;11 cells, cell viability, 3 days, CellTiter-Glo, read-out: IC50
[2] = RS4;11 ALL cells treated for three days, read-out: cell viability inhibition IC50

## CS(=O)(=O)c1ccc(-c2cccc3nc(Nc4ccc(N5CCN(C(=O)CNc6ccc7c(c6)C(=O)N(C6CCC(=O)NC6=O)C7=O)CC5)cc4)nn23)cc1 (stereo not shown) [JA-194, 2-(2,6-Dioxopiperidin-3-yl)-5-((2-(4-(4-((5-(4-(methylsulfonyl)phenyl)-[1,2,4]triazolo[1,5-a]pyridin-2-yl)amino)phenyl)piperazin-1-yl)-2-oxoethyl)amino)isoindoline-1,3-dione]
[1]
  IC50: > 10000 nM

## CS(=O)(=O)c1ccc(-c2cccc3nc(Nc4ccc(N5CCN(C(=O)CCOCCNc6ccc7c(c6)C(=O)N(C6CCC(=O)NC6=O)C7=O)CC5)cc4)nn23)cc1 (stereo not shown) [JA-195, 2-(2,6-Dioxopiperidin-3-yl)-5-((2-(3-(4-(4-((5-(4-(methylsulfonyl)phenyl)-[1,2,4]triazolo[1,5-a]pyridin-2-yl)amino)phenyl)piperazin-1-yl)-3-oxopropoxy)ethyl)amino)isoindoline-1,3-dione]
[1]
  IC50: > 10000 nM

## CS(=O)(=O)c1ccc(-c2cccc3nc(Nc4ccc(N5CCN(C(=O)CCCCNc6ccc7c(c6)C(=O)N(C6CCC(=O)NC6=O)C7=O)CC5)cc4)nn23)cc1 (stereo not shown) [JA-196, 2-(2,6-dioxopiperidin-3-yl)-5-((5-(4-(4-((5-(4-(methylsulfonyl)phenyl)-[1,2,4]triazolo[1,5-a]pyridin-2-yl)amino)phenyl)piperazin-1-yl)-5-oxopentyl)amino)isoindoline-1,3-dione]
[2]
  IC50: < 100 nM
[1]
  IC50: 107 nM

## CS(=O)(=O)c1ccc(-c2cccc3nc(Nc4ccc(N5CCN(C(=O)CCOCCOCCOCCOCCNc6ccc7c(c6)C(=O)N(C6CCC(=O)NC6=O)C7=O)CC5)cc4)nn23)cc1 (stereo not shown) [JA-197, 2-(2,6-Dioxopiperidin-3-yl)-5-((15-(4-(4-((5-(4-(methylsulfonyl)phenyl)-[1,2,4]triazolo[1,5-a]pyridin-2-yl)amino)phenyl)piperazin-1-yl)-15-oxo-3,6,9,12-tetraoxapentadecyl)amino)isoindoline-1,3-dione]
[1]
  IC50: 5550 nM

## CS(=O)(=O)c1ccc(-c2cccc3nc(Nc4ccc(N5CCN(C(=O)CCCCCNc6ccc7c(c6)C(=O)N(C6CCC(=O)NC6=O)C7=O)CC5)cc4)nn23)cc1 (stereo not shown) [JA-198, 2-(2,6-dioxopiperidin-3-yl)-5-((6-(4-(4-((5-(4-(methylsulfonyl)phenyl)-[1,2,4]triazolo[1,5-a]pyridin-2-yl)amino)phenyl)piperazin-1-yl)-6-oxohexyl)amino)isoindoline-1,3-dione]
[2]
  IC50: < 100 nM
[1]
  IC50: 7.3 nM

## CS(=O)(=O)c1ccc(-c2cccc3nc(Nc4ccc(N5CCN(C(=O)CCCCCCNc6ccc7c(c6)C(=O)N(C6CCC(=O)NC6=O)C7=O)CC5)cc4)nn23)cc1 (stereo not shown) [JA-199, 2-(2,6-dioxopiperidin-3-yl)-5-((7-(4-(4-((5-(4-(methylsulfonyl)phenyl)-[1,2,4]triazolo[1,5-a]pyridin-2-yl)amino)phenyl)piperazin-1-yl)-7-oxoheptyl)amino)isoindoline-1,3-dione]
[2]
  IC50: < 100 nM
[1]
  IC50: 32.5 nM

## CS(=O)(=O)c1ccc(-c2cccc3nc(Nc4ccc(N5CCN(C(=O)CCOCCOCCOCCNc6ccc7c(c6)C(=O)N(C6CCC(=O)NC6=O)C7=O)CC5)cc4)nn23)cc1 (stereo not shown) [JA-200, 2-(2,6-Dioxopiperidin-3-yl)-5-((2-(2-(2-(3-(4-(4-((5-(4-(methylsulfonyl)phenyl)-[1,2,4]triazolo[1,5-a]pyridin-2-yl)amino)phenyl)piperazin-1-yl)-3-oxopropoxy)ethoxy)ethoxy)ethyl)amino)isoindoline-1,3-dione]
[1]
  IC50: 403 nM

## CS(=O)(=O)c1ccc(-c2cccc3nc(Nc4ccc(N5CCN(C(=O)CCOCCOCCNc6ccc7c(c6)C(=O)N(C6CCC(=O)NC6=O)C7=O)CC5)cc4)nn23)cc1 (stereo not shown) [JA-201]
[1]
  IC50: 241 nM

## CS(=O)(=O)c1ccc(-c2cccc3nc(Nc4ccc(N5CCN(C(=O)CCNc6ccc7c(c6)C(=O)N(C6CCC(=O)NC6=O)C7=O)CC5)cc4)nn23)cc1 (stereo not shown) [JA-202]
[2]
  IC50: < 100 nM
[1]
  IC50: 108 nM

## CS(=O)(=O)c1ccc(-c2cccc3nc(Nc4ccc(N5CCN(C(=O)CCCCCCCNc6ccc7c(c6)C(=O)N(C6CCC(=O)NC6=O)C7=O)CC5)cc4)nn23)cc1 (stereo not shown) [JA-203]
[2]
  IC50: < 100 nM
[1]
  IC50: 22.8 nM

## CS(=O)(=O)c1ccc(-c2cccc3nc(Nc4ccc(N5CCN(CC(=O)NCCCCCNc6ccc7c(c6)C(=O)N(C6CCC(=O)NC6=O)C7=O)CC5)cc4)nn23)cc1 (stereo not shown) [JA-204, N-(5-((2-(2,6-Dioxopiperidin-3-yl)-1,3-dioxoisoindolin-5-yl)amino)pentyl)-2-(4-(4-((5-(4-(methylsulfonyl)phenyl)-[1,2,4]triazolo[1,5-a]pyridin-2-yl)amino)phenyl)piperazin-1-yl)acetamide]
[1]
  IC50: > 10000 nM

## CS(=O)(=O)c1ccc(-c2cccc3nc(Nc4ccc(N5CCN(CC(=O)NCCCCNc6ccc7c(c6)C(=O)N(C6CCC(=O)NC6=O)C7=O)CC5)cc4)nn23)cc1 (stereo not shown) [JA-205, N-(4-((2-(2,6-Dioxopiperidin-3-yl)-1,3-dioxoisoindolin-5-yl)amino)butyl)-2-(4-(4-((5-(4-(methylsulfonyl)phenyl)-[1,2,4]triazolo[1,5-a]pyridin-2-yl)amino)phenyl)piperazin-1-yl)acetamide]
[1]
  IC50: 676 nM

## CS(=O)(=O)c1ccc(-c2cccc3nc(Nc4ccc(N5CCN(CC(=O)NCCOCCOCCOCCOCCNc6ccc7c(c6)C(=O)N(C6CCC(=O)NC6=O)C7=O)CC5)cc4)nn23)cc1 (stereo not shown) [JA-206, N-(14-((2-(2,6-Dioxopiperidin-3-yl)-1,3-dioxoisoindolin-5-yl)amino)-3,6,9,12-tetraoxatetradecyl)-2-(4-(4-((5-(4-(methylsulfonyl)phenyl)-[1,2,4]triazolo[1,5-a]pyridin-2-yl)amino)phenyl)piperazin-1-yl)acetamide]
[1]
  IC50: > 10000 nM

## CS(=O)(=O)c1ccc(-c2cccc3nc(Nc4ccc(N5CCN(CC(=O)NCCNc6ccc7c(c6)C(=O)N(C6CCC(=O)NC6=O)C7=O)CC5)cc4)nn23)cc1 (stereo not shown) [JA-207, N-(2-((2-(2,6-Dioxopiperidin-3-yl)-1,3-dioxoisoindolin-5-yl)amino)ethyl)-2-(4-(4-((5-(4-(methylsulfonyl)phenyl)-[1,2,4]triazolo[1,5-a]pyridin-2-yl)amino)phenyl)piperazin-1-yl)acetamide]
[1]
  IC50: 1240 nM

## CS(=O)(=O)c1ccc(-c2cccc3nc(Nc4ccc(N5CCN(CC(=O)NCCOCCOCCNc6ccc7c(c6)C(=O)N(C6CCC(=O)NC6=O)C7=O)CC5)cc4)nn23)cc1 (stereo not shown) [JA-208, N-(2-(2-(2-((2-(2,6-Dioxopiperidin-3-yl)-1,3-dioxoisoindolin-5-yl)amino)ethoxy)ethoxy)ethyl)-2-(4-(4-((5-(4-(methylsulfonyl)phenyl)-[1,2,4]triazolo[1,5-a]pyridin-2-yl)amino)phenyl)piperazin-1-yl)acetamide]
[1]
  IC50: 3350 nM

## CS(=O)(=O)c1ccc(-c2cccc3nc(Nc4ccc(N5CCN(CC(=O)NCCOCCOCCOCCNc6ccc7c(c6)C(=O)N(C6CCC(=O)NC6=O)C7=O)CC5)cc4)nn23)cc1 (stereo not shown) [JA-209, N-(2-(2-(2-(2-((2-(2,6-Dioxopiperidin-3-yl)-1,3-dioxoisoindolin-5-yl)amino)ethoxy)ethoxy)ethoxy)ethyl)-2-(4-(4-((5-(4-(methylsulfonyl)phenyl)-[1,2,4]triazolo[1,5-a]pyridin-2-yl)amino)phenyl)piperazin-1-yl)acetamide]
[1]
  IC50: > 10000 nM

## CS(=O)(=O)c1ccc(-c2cccc3nc(Nc4ccc(N5CCN(CC(=O)NCCCNc6ccc7c(c6)C(=O)N(C6CCC(=O)NC6=O)C7=O)CC5)cc4)nn23)cc1 (stereo not shown) [JA-210, N-(3-((2-(2,6-Dioxopiperidin-3-yl)-1,3-dioxoisoindolin-5-yl)amino)propyl)-2-(4-(4-((5-(4-(methylsulfonyl)phenyl)-[1,2,4]triazolo[1,5-a]pyridin-2-yl)amino)phenyl)piperazin-1-yl)acetamide]
[1]
  IC50: > 10000 nM

## CS(=O)(=O)c1ccc(-c2cccc3nc(Nc4ccc(N5CCN(CC(=O)NCCOCCOCCOCCOCCOCCNc6ccc7c(c6)C(=O)N(C6CCC(=O)NC6=O)C7=O)CC5)cc4)nn23)cc1 (stereo not shown) [JA-211, N-(17-((2-(2,6-Dioxopiperidin-3-yl)-1,3-dioxoisoindolin-5-yl)amino)-3,6,9,12,15-pentaoxaheptadecyl)-2-(4-(4-((5-(4-(methylsulfonyl)phenyl)-[1,2,4]triazolo[1,5-a]pyridin-2-yl)amino)phenyl)piperazin-1-yl)acetamide]
[1]
  IC50: > 10000 nM

## CS(=O)(=O)c1ccc(-c2cccc3nc(Nc4ccc(N5CCN(CC(=O)NCCOCCNc6ccc7c(c6)C(=O)N(C6CCC(=O)NC6=O)C7=O)CC5)cc4)nn23)cc1 (stereo not shown) [JA-212, N-(2-(2-((2-(2,6-Dioxopiperidin-3-yl)-1,3-dioxoisoindolin-5-yl)amino)ethoxy)ethyl)-2-(4-(4-((5-(4-(methylsulfonyl)phenyl)-[1,2,4]triazolo[1,5-a]pyridin-2-yl)amino)phenyl)piperazin-1-yl)acetamide]
[1]
  IC50: > 10000 nM

## CS(=O)(=O)c1ccc(-c2cccc3nc(Nc4ccc(N5CCN(CC(=O)NCCCCCCCNc6ccc7c(c6)C(=O)N(C6CCC(=O)NC6=O)C7=O)CC5)cc4)nn23)cc1 (stereo not shown) [JA-214]
[2]
  IC50: < 100 nM
[1]
  IC50: 63.5 nM

## CS(=O)(=O)c1ccc(-c2cccc3nc(Nc4ccc(N5CCN(CC(=O)NCCCCCCNc6ccc7c(c6)C(=O)N(C6CCC(=O)NC6=O)C7=O)CC5)cc4)nn23)cc1 (stereo not shown) [JA-215, N-(6-((2-(2,6-dioxopiperidin-3-yl)-1,3-dioxoisoindolin-5-yl)amino)hexyl)-2-(4-(4-((5-(4-(methylsulfonyl)phenyl)-[1,2,4]triazolo[1,5-a]pyridin-2-yl)amino)phenyl)piperazin-1-yl)acetamide]
[1]
  IC50: > 10000 nM

## CS(=O)(=O)c1ccc(-c2cccc3nc(Nc4ccc(N5CCN(C(=O)CCCNc6ccc7c(c6)C(=O)N(C6CCC(=O)NC6=O)C7=O)CC5)cc4)nn23)cc1 (stereo not shown) [JA-216, 2-(2,6-Dioxopiperidin-3-yl)-5-((4-(4-(4-((5-(4-(methylsulfonyl)phenyl)-[1,2,4]triazolo[1,5-a]pyridin-2-yl)amino)phenyl)piperazin-1-yl)-4-oxobutyl)amino)isoindoline-1,3-dione]
[1]
  IC50: 3410 nM
